Marks after values point to notes of the source that are not given here.
Tested on: cytokines in psoriatic lesional skin
Assay: Skin tape strip biomarkers (Olink Target 96 Inflammation panel) in the phase 2b psoriasis study (Example 10)
Type: in vivo, human
Conditions: for log2FCH W16_L - BL_L, CCL3 / log2FCH W16_L - BL_L, CCL4 / log2FCH W16_L - BL_L, CCL20 / log2FCH W16_L - BL_L, CSF1 / log2FCH W16_L - BL_L, CXCL1 / log2FCH W16_L - BL_L, CXCL5 / log2FCH W16_L - BL_L, CXCL6 / log2FCH W16_L - BL_L, CXCL9 / log2FCH W16_L - BL_L, CXCL10 / log2FCH W16_L - BL_L, IFNγ / log2FCH W16_L - BL_L, IL8 / log2FCH W16_L - BL_L, IL12B / log2FCH W16_L - BL_L, IL17A / log2FCH W16_L - BL_L, IL18 / log2FCH W16_L - BL_L, IL18R1 / log2FCH W16_L - BL_L, IL. 17C / log2FCH W16_L - BL_L, MMP1 / log2FCH W16_L - BL_L, TNFRSF9 / log2FCH W16_L - BL_L, TNFSF14 / log2FCH W16_L - BL_L, TNFα / log2FCH W16_L - BL_L, TRAIL: Week 16 lesional vs baseline lesional skin
Description: Skin tape strip samples were taken from lesional and non-lesional skin at baseline and lesional skin at week 16 of patients participating in the phase 2b, dose-ranging study assessing oral modified release orismilast in adults with moderate-to-severe plaque psoriasis (NCT05190419) described in Example 3. Approximately twenty consecutive stratum corneum samples were collected from the same skin site by tape stripping (D-squames; Monaderm DS100) of both lesional and non-lesional skin at baseline and lesional skin at week 16. To extract the proteins from the tapes the first ten tapes were pooled together and used for subsequent protein extraction by incubation in 800 μL of PBS containing 0.2% Triton X-100 together with a mixture of protease inhibitors and incubated overnight at 4° C. under stirring at 1400 rpm in a thermo mixer (Eppendorf). The insoluble material was removed by filtration on 0.22 μm filters by centrifugation. The protein extracts were analyzed using the Olink® technology (Target 96 Inflammation panel). Protein extracts from patients treated with placebo, 20 mg orismilast BID, and 30 mg orismilast BID as described in Example 3 were analyzed.
OLINK data was analyzed in R 2023.09.0+463 using a linear mixed effect model (OlinkAnalyse and Ime4) to estimate log 2 fold changes between Week 16 lesional skin versus baseline lesional skin and baseline lesional versus baseline non-lesional skin levels. P-values were corrected for multiple testing using the Benjamini-Hochberg method. The data was further modeled according to a weight-based dosing regimen in which data of the 20 mg Orismilast BID arm was used for patients with a bodyweight at baseline of <100 kg and combined with using data of the 30 mg Orismilast BID arm for patients ≥100 kg, respectively (named “P3DR”).

[1] = P3DR (20 mg <100 kg and 30 mg >=100 kg combined)

With `O=C(Cc1c(Cl)c[n+]([O-])cc1Cl)c1ccc(OC(F)F)c2c1OC1(CCS(=O)(=O)CC1)O2` [orismilast, 2-(3,5-dichloro-1-oxidopyridin-1-ium-4-yl)-1-[7-(difluoromethoxy)-1′,1′-dioxospiro[1,3-benzodioxole-2,4′-thiane]-4-yl]ethanone] the “log2FCH W16_L - BL_L, CCL3” value (20 mg BID) was −2.68 ***, the “log2FCH W16_L - BL_L, CCL4” value (20 mg BID) was −2.46 *** and the “log2FCH W16_L - BL_L, CCL20” value (20 mg BID) was −2.53 ***. For the same compound, the “log2FCH W16_L - BL_L, CSF1” value (20 mg BID) was −1.35 **, the “log2FCH W16_L - BL_L, CXCL1” value (20 mg BID) was −1.83 * and the “log2FCH W16_L - BL_L, CXCL5” value (20 mg BID) was −1.67 **. The “log2FCH W16_L - BL_L, CXCL6” value (20 mg BID) was −2.34 ***, the “log2FCH W16_L - BL_L, CXCL9” value (20 mg BID) was −2.40 *** and the “log2FCH W16_L - BL_L, CXCL10” value (20 mg BID) was −2.20 ***. The “log2FCH W16_L - BL_L, IFNγ” value (20 mg BID) was −1.21 *, the “log2FCH W16_L - BL_L, IL8” value (20 mg BID) was −1.82 * and the “log2FCH W16_L - BL_L, IL12B” value (20 mg BID) was −2.21 **. The “log2FCH W16_L - BL_L, IL17A” value (20 mg BID) was −2.19 ***, the “log2FCH W16_L - BL_L, IL18” value (20 mg BID) was −2.10 ** and the “log2FCH W16_L - BL_L, IL18R1” value (20 mg BID) was −1.25 **. The “log2FCH W16_L - BL_L, IL. 17C” value (20 mg BID) was −2.49 ***, the “log2FCH W16_L - BL_L, MMP1” value (20 mg BID) was −2.41 ** and the “log2FCH W16_L - BL_L, TNFRSF9” value (20 mg BID) was −1.45 ***. For the same compound, the “log2FCH W16_L - BL_L, TNFSF14” value (20 mg BID) was −1.38 *, the “log2FCH W16_L - BL_L, TNFα” value (20 mg BID) was −1.92 *** and the “log2FCH W16_L - BL_L, TRAIL” value (20 mg BID) was −1.40 **. The “log2FCH W16_L - BL_L, CCL3” value (30 mg BID) was −3.42 ***, the “log2FCH W16_L - BL_L, CCL4” value (30 mg BID) was −2.83 *** and the “log2FCH W16_L - BL_L, CCL20” value (30 mg BID) was −3.36 ***. The “log2FCH W16_L - BL_L, CSF1” value (30 mg BID) was −1.97 ***, the “log2FCH W16_L - BL_L, CXCL1” value (30 mg BID) was −2.84 *** and the “log2FCH W16_L - BL_L, CXCL5” value (30 mg BID) was −2.26 ***. The “log2FCH W16_L - BL_L, CXCL6” value (30 mg BID) was −3.15 ***, the “log2FCH W16_L - BL_L, CXCL9” value (30 mg BID) was −3.32 *** and the “log2FCH W16_L - BL_L, CXCL10” value (30 mg BID) was −2.89 ***. The “log2FCH W16_L - BL_L, IFNγ” value (30 mg BID) was −2.02 ***, the “log2FCH W16_L - BL_L, IL8” value (30 mg BID) was −2.76 *** and the “log2FCH W16_L - BL_L, IL12B” value (30 mg BID) was −3.38 ***. For the same compound, the “log2FCH W16_L - BL_L, IL17A” value (30 mg BID) was −2.66 ***, the “log2FCH W16_L - BL_L, IL18” value (30 mg BID) was −3.46 *** and the “log2FCH W16_L - BL_L, IL18R1” value (30 mg BID) was −1.99 ***. For the same compound, the “log2FCH W16_L - BL_L, IL. 17C” value (30 mg BID) was −3.39 ***, the “log2FCH W16_L - BL_L, MMP1” value (30 mg BID) was −3.30 *** and the “log2FCH W16_L - BL_L, TNFRSF9” value (30 mg BID) was −2.03 ***. The “log2FCH W16_L - BL_L, TNFSF14” value (30 mg BID) was −2.23 ***, the “log2FCH W16_L - BL_L, TNFα” value (30 mg BID) was −2.48 *** and the “log2FCH W16_L - BL_L, TRAIL” value (30 mg BID) was −2.04 ***. The “log2FCH W16_L - BL_L, CCL3” value [1] was −3.60 ***, the “log2FCH W16_L - BL_L, CCL4” value [1] was −3.14 *** and the “log2FCH W16_L - BL_L, CCL20” value [1] was −3.22 ***. The “log2FCH W16_L - BL_L, CSF1” value [1] was −1.86 ***, the “log2FCH W16_L - BL_L, CXCL1” value [1] was −2.34 *** and the “log2FCH W16_L - BL_L, CXCL5” value [1] was −2.25 ***. For the same compound, the “log2FCH W16_L - BL_L, CXCL6” value [1] was −3.02 ***, the “log2FCH W16_L - BL_L, CXCL9” value [1] was −3.24 *** and the “log2FCH W16_L - BL_L, CXCL10” value [1] was −2.94 ***. For the same compound, the “log2FCH W16_L - BL_L, IFNγ” value [1] was −1.91 ***, the “log2FCH W16_L - BL_L, IL8” value [1] was −2.42 *** and the “log2FCH W16_L - BL_L, IL12B” value [1] was −3.09 ***. The “log2FCH W16_L - BL_L, IL17A” value [1] was −2.66 ***, the “log2FCH W16_L - BL_L, IL18” value [1] was −2.96 *** and the “log2FCH W16_L - BL_L, IL18R1” value [1] was −1.83 ***. For the same compound, the “log2FCH W16_L - BL_L, IL. 17C” value [1] was −3.20 ***, the “log2FCH W16_L - BL_L, MMP1” value [1] was −3.31 *** and the “log2FCH W16_L - BL_L, TNFRSF9” value [1] was −1.98 ***. For the same compound, the “log2FCH W16_L - BL_L, TNFSF14” value [1] was −2.08 ***, the “log2FCH W16_L - BL_L, TNFα” value [1] was −2.50 *** and the “log2FCH W16_L - BL_L, TRAIL” value [1] was −1.91 ***. For the same compound, the “expression of key disease driving cytokines in psoriatic lesions” value (oral orismilast for 16 weeks, 20 mg BID and 30 mg BID) was “significantly reduced”.
